No end group written: not given here.
How the values were obtained:
βPKC = test: Western blot of PMA-induced PKC translocation from cell soluble to particulate fraction; format: cell-based, rat; conditions: 10 nM PMA for 10 minutes, cardiac myocytes
Description: (§1) Briefly, ventricles from day-old Sprague-Dawley rats were minced, and single isolated myocytes were obtained by alternating cycles of room temperature trypsinization and mechanical dissociation. […] After 30 minutes nonattached cardiac myocytes were collected and replated at a density of 800 cells per mm^2 into 8-well glass chamber slides (Nunc, Naperville, Ill.) for cell viability assays and immunofluorescence staining, into 6-well plastic culture plates (Fisher Scientific, Pittsburgh, Pa.) for lactate dehydrogenase (LDH) assays, or into 100 mm glass culture dishes for Western blot analyses. […] Experiments were conducted on culture days 6-8.
(§2) Following treatment, medium from one plate was removed, and cells were washed twice with ice-cold phosphate-buffered saline (PBS). 1.5 ml of chilled homogenization buffer consisting of 10 mM Tris-HCl pH 7.4, 1 mM EDTA, 1 mM EGTA, 0.25 M sucrose, and […] each of phenylmethylsulfonyl fluoride, soybean trypsin inhibitor, leupeptin, and aprotinin was added to each dish. Myocytes were scraped from the plates and triturated 3 times with a tuberculin syringe attached to a 22-gauge needle. […] Supernatants were concentrated to a volume of […] with a Centricon 30 filtration unit (Amicon, Beverly, Mass.).

δPKC = biological target: T1, δPKC (Rattus norvegicus, UniProt P09215); test: as above; format: cell-based; conditions: 10 nM PMA for 10 minutes, cardiac myocytes
T1 construct: Western Blot of cardiac myocyte soluble and particulate fractions; endogenous in cells; host or cells: primary neonatal Sprague-Dawley rat ventricular myocytes
Description: Primary cell cultures were prepared as previously described (Disatnik, et al., 1994). Briefly, ventricles from day-old Sprague-Dawley rats were minced, and single isolated myocytes were obtained by alternating cycles of room temperature trypsinization and mechanical dissociation. Cells were washed and preplated in medium 199 with Hanks' salt solution (Gibco/BRL Life Technologies, Gaithersburg, Md.) containing 10% fetal bovine serum (Hyclone Laboratories, Inc., Logan, Utah) to reduce the number of contaminating non-myocardial cells (NMCs). […]
Western blot analyses of cardiac myocytes grown on 100 mm glass dishes were carried out as previously described (Liu, Y., et al., 1995). […] Soluble and particulate fractions were then subjected to 12% SDS-PAGE and transferred to nitrocellulose sheets. βPKC levels were determined using monoclonal anti-βPKC antibodies (Seikagaku Kogyo, Tokyo, Japan) diluted 1:1000 followed by incubation with rabbit anti-mouse IgG antibodies (Cappel, Durham, N.C.), also at 1:1000 dilution. δPKC and εPKC levels were determined using rabbit polyclonal anti-δPKC and anti-εPKC antibodies (Gibco/BRL), each at 1:300 dilution. Western blots were then incubated with ^125 I-protein A (ICN Biomedicals, Inc., Irvine, Calif.), and PKC immunoreactive bands were detected by autoradiography.
The ability of PMA to activate the PKC isozymes αPKC, βPKC, δPKC and εPKC was evaluated. […]

εPKC [1] = biological target: T2, εPKC (Rattus norvegicus, UniProt P09216); test: as above; format: cell-based; conditions: 10 nM PMA for 10 minutes, cardiac myocytes
T2 construct: Western Blot of cardiac myocyte soluble and particulate fractions; endogenous in cells; host or cells: primary neonatal Sprague-Dawley rat ventricular myocytes
T2 sequence (P09216 1-737): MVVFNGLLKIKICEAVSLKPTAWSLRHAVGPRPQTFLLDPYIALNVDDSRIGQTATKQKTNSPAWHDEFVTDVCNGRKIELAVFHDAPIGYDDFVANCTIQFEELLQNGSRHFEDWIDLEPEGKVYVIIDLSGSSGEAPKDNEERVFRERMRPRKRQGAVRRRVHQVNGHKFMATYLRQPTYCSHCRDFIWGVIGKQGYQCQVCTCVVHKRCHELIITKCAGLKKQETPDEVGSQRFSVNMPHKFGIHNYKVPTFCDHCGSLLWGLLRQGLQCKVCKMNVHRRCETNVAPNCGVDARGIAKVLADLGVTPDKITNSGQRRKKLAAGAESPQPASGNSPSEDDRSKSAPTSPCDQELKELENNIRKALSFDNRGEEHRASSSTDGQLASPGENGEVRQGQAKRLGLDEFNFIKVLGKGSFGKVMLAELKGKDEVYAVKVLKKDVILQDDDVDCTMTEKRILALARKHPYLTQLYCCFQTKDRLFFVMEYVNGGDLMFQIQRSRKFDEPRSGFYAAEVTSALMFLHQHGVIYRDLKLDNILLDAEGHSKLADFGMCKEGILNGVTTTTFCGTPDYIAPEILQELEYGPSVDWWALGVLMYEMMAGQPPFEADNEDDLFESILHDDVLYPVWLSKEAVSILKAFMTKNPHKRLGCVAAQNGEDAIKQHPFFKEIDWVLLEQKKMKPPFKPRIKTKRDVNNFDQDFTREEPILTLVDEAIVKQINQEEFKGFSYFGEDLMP
Description: as §1, §2

cardiac myocytes [2] = test: PMA-induced protection of cardiac myocytes from prolonged hypoxia, cell viability assay; format: cell-based, rat; conditions: 10 nM PMA for 10 minutes, washed, then 9 hours of hypoxia
Description: (§3) Primary cell cultures were prepared as previously described (Disatnik, et al., 1994). Briefly, ventricles from day-old Sprague-Dawley rats were minced, and single isolated myocytes were obtained by alternating cycles of room temperature trypsinization and mechanical dissociation. Cells were washed and preplated in medium 199 with Hanks' salt solution (Gibco/BRL Life Technologies, Gaithersburg, Md.) containing 10% fetal bovine serum (Hyclone Laboratories, Inc., Logan, Utah) to reduce the number of contaminating non-myocardial cells (NMCs). After 30 minutes nonattached cardiac myocytes were collected and replated at a density of 800 cells per mm^2 into 8-well glass chamber slides (Nunc, Naperville, Ill.) for cell viability assays and immunofluorescence staining, into 6-well plastic culture plates (Fisher Scientific, Pittsburgh, Pa.) for lactate dehydrogenase (LDH) assays, or into 100 mm glass culture dishes for Western blot analyses. […]
(§4) Following treatment of cardiac myocytes grown on 8-well chamber slides, living and dead cells were distinguished using the "EUKOLIGHT" Viability/Cytotoxicity assay (Molecular Probes, Eugene, Oreg.). […] The number of viable (green fluorescent by calcine) and non-viable (red fluorescent by ethidium) cardiac myocytes present in 10-20 random microscopic fields per condition per experiment was recorded. […]

εPKC [3] = biological target: T2, εPKC; test: Effect of isoform-specific inhibitory peptides on PMA-induced PKC translocation, Western blot; format: cell-based; conditions: peptide introduced by permeabilization, 10 nM PMA for 10 minutes
Description: as §1, §2

εPKC [4] = biological target: T2, εPKC; test: Peptide-induced translocation of PKC in cardiac myocytes; format: cell-based; conditions: 10 μg/ml in permeabilization buffer
Description: as §3
Immunofluorescence staining of cardiac myocytes grown on 8-well glass chamber slides was carried out as previously described (Hauser, et al., 1993). […] Images were recorded on Kodak TMAX 400 film with exposure time of 1 second for all photomicrographs and were processed by an automated, commercial developer without additional adjustment. […]

cardiac myocytes [5] = test: Protection of cardiac myocytes from 9 hours of hypoxia by peptides, cell viability assay; format: cell-based, rat; conditions: after 9 hours of hypoxia; peptide introduced by saponin permeabilization; average of two experiments
Description: as §3, §4

T1 sequence (P09215 whole entry): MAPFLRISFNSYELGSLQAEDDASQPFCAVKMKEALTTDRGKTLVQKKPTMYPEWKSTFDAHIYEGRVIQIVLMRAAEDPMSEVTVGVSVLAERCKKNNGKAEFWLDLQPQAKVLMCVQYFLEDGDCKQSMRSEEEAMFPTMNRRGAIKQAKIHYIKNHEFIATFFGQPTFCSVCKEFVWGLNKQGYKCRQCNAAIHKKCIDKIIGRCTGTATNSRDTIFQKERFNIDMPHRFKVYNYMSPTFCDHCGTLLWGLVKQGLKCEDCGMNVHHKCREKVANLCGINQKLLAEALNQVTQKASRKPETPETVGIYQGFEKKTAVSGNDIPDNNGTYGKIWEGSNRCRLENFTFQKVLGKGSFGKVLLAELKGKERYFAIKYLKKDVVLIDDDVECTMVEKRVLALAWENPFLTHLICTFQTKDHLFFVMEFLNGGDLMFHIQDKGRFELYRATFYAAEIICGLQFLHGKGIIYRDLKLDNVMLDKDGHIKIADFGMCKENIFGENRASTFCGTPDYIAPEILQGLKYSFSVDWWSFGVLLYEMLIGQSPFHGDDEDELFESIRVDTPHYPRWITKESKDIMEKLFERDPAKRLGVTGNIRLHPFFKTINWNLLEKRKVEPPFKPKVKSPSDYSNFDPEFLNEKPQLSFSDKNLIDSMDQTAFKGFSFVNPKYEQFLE

For `CCCCCCCCCCCCCC(=O)O[C@@H]1[C@@H](C)[C@@]2(O)[C@@H](C=C(CO)C[C@]3(O)C(=O)C(C)=C[C@@H]23)[C@@H]2C(C)(C)[C@]12OC(C)=O` [PMA, 4β-phorbol 12-myristate 13-acetate], the “translocation of βPKC from the cell soluble to the cell particulate fraction” value (βPKC) was “minimal translocation”, the “translocation of δPKC in response to PMA” value (δPKC) was “robust” and the “translocation of εPKC in response to PMA” value (εPKC [1]) was “robust”. For the same compound, the “increase in the proportion of surviving myocytes versus control” value (cardiac myocytes [2]) was 34%.
With EAVSLKPT [εV1-2] the “reduction in the particulate signal compared with PMA alone (densitometry)” value (εPKC [3]) was 23%.
HDAPIGYD [εV1-7] was tested, and the “cells with translocation of εPKC” value (εPKC [4]) was 70% and the viable cells (cardiac myocytes [5]) was 65%.
For SLNPEWNET [β pseudo-RACK peptide], the viable cells (cardiac myocytes [5]) was 35%.

From US6165977A, “Isozyme-specific activators of protein kinase C methods and compositions” (Board of Trustees of the Leland Stanford Junior University, priority 1997, dated 2000)
